Measurements: patent US4839344A, “Polypeptide compounds having growth hormone releasing activity” (Eastman Kodak Company, priority 1987, dated 1989)
Several values for one entry are separate records, joined by “and”; a condition that tells them apart may be missing. Equal entries are not always repeated. Square brackets hold non-standard residues; d marks the D form. Ends that are not written are not given here.

System: growth hormone (GH) release
Test: In Vivo GH Release in Rats (serum GH by RIA)
Design: species or system immature female Sprague-Dawley rats
Conditions: rat serum, i.v., mean ± SEM, six rats
[1] = total dose 10 μg, sacrificed 10 minutes after final injection

AC[dW]AW[dF]KC-NH2 (cysteine pairing not given here) [Compound 9308]
GH Released by Compound in Column A [1]: 10 ± 1 ng/mL

CAH[dW]AW[dF]KC-NH2 (cysteine pairing not given here) [Compound 8758]
GH Released by Compound in Column A [1]: 37 ± 8 ng/mL and 26 ± 9 ng/mL
GH Released by Compound in Column A (total dose 20 (ng as printed), sacrificed 30 minutes after final injection): 52 ± 7 ng/mL
